Measurements taken from patent US8304427B2, “Acylthiourea compound or salt thereof, and use thereof” (Taiho Pharmaceutical Co., Ltd., priority 2008, dated 2012).
Read-outs that look alike come from different tables or passages of the source.

Tests used:
NUGC4 cells = assay: Cell-proliferation inhibitory assay against NUGC4 cells (Crystal Violet); format: cell-based; conditions: Homo sapiens, NUGC-4, 72 h; NUGC4, cancer, c-Met status (+), 3 days
Procedure: Cell-Proliferation Inhibitory Assay Against NUGC4 Cells (Human Gastric Cancer Cell Strain in Which c-Met is Over-Expressed and Highly Activated), In Vitro Test
NUGC4 cell suspension (in a 10% FBS-containing RPMI 1640 medium (product of Wako Pure Chemical Industries Ltd.) or a FBS-containing DMEM medium (product of Nacalai Tesque, Inc.)) was inoculated to each well of a 96-well (flat-bottom) microplate in an amount of 2×10^3 cells (0.1 mL), and the plate was incubated in an incubator under 5% CO2 gas atmosphere at 37° C. for one day. Each of the compounds of the present invention and comparative compound 1 was dissolved in dimethyl sulfoxide to a concentration of 30 mM. The solution was diluted with 10% FBS-containing RPMI 1640 or DMEM medium, to a final test compound concentration of 60, 20, 6, 2, 0.6, or 0.2 μM. The thus-prepared test compound solution was added to each well of the NUGC4 cell culture plate at 0.1 mL/well, and the plate was incubated in an incubator under 5% CO2 gas atmosphere at 37° C. for 3 days. After culturing, 25% aqueous glutaraldehyde solution (product of Nacalai Tesque, Inc.) was added to each well at 20 μL, and the plate was left to stand at room temperature for 20 minutes, whereby cells were fixed. Thereafter, the plate was washed with tap water and dried. Then, aqueous 0.05% Crystal Violet/20% methanol solution (product of Wako Pure Chemical Industries Ltd.) was added to each well at 100 μL/well, and the plate was left to stand at room temperature for 20 minutes, whereby cells were stained. Thereafter, the plate was washed with tap water and dried. To each well, 0.05 M NaH2PO4/ethanol (1/1=v/v) (100 μL) was added, to thereby extract Crystal Violet. The absorbance of the extracted Crystal Violet was measured at 540 nm using a microplate reader, and the absorbance was employed as an index for living cell count. Percent inhibition was calculated by the following equation, and the 50% inhibition test compound concentration (IC50 (μM)) was calculated. Percent inhibition (%)=(C−T)/C×100 • T: Absorbance of well to which a test compound was added • C: Absorbance of well to which no test compound was added

c-Met [1] = target: T1, c-Met (Homo sapiens, UniProt P08581); assay: c-Met inhibitory assay using AlphaScreen (Method A); format: biochemical; design: purchased Carna bio Co., Ltd 08-051; conditions: ATP 20 μM
Procedure: Inhibitory activity of compounds against c-Met kinase was determined through the following procedures. Method A) c-Met inhibitory assay using AlphaScreen™
A biotinylated peptide including a phosphorylated site of Pyk2 (Tyr402), which is reported as a bio-substrate in Clin. Cancer Res. vol. […] The mixture was allowed to react at room temperature for 20 minutes. EDTA was added to the reaction mixture to a final concentration of 50 mM, to thereby terminate reaction. […] The reaction was done for one hour at room temperature. Thereafter, the fluorescence intensity from the reaction mixture was measured using a multi-label counter (EnVision™, Perkin Elmer).
Target sequence in this assay (P08581 956-1390 limits assumed): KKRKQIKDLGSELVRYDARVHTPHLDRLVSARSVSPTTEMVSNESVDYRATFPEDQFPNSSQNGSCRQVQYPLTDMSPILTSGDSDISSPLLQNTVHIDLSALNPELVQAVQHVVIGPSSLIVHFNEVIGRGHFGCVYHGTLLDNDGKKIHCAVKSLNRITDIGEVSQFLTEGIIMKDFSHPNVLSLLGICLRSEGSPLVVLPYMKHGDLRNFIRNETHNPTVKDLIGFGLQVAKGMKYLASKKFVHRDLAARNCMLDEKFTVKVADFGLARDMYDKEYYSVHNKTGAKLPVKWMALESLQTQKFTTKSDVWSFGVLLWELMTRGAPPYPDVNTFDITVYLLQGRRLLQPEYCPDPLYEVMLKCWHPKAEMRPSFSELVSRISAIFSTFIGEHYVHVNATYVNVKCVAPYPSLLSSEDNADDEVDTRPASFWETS

[2] = test system: HMEC (human skin microvascular endothelial cell); assay: Cell proliferation inhibition test against normal cells HMEC; format: cell-based; conditions: for IC50: Homo sapiens, 72 h, HMEC, read-out: IC50 HMEC; for ratio HMEC: IC50 HMEC relative to IC50 NUGC4
Procedure: [Worded in the source for another cell line; this cell line is reported under the same test.] (§1) The thus-prepared test compound solution was added to each well of the NUGC4 cell culture plate at 0.1 mL/well, and the plate was incubated in an incubator under 5% CO2 gas atmosphere at 37° C. for 3 days. […] Thereafter, the plate was washed with tap water and dried. Then, aqueous 0.05% Crystal Violet/20% methanol solution (product of Wako Pure Chemical Industries Ltd.) was added to each well at 100 μL/well, and the plate was left to stand at room temperature for 20 minutes, whereby cells were stained. Thereafter, the plate was washed with tap water and dried. To each well, 0.05 M NaH2PO4/ethanol (1/1=v/v) (100 μL) was added, to thereby extract Crystal Violet. The absorbance of the extracted Crystal Violet was measured at 540 nm using a microplate reader, and the absorbance was employed as an index for living cell count. […] Percent inhibition (%)=(C−T)/C×100 • T: Absorbance of well to which a test compound was added • C: Absorbance of well to which no test compound was added

HCT-116 = assay: Cell proliferation inhibition test against c-Met low expressing tumor cells (HCT-116); format: cell-based; conditions: for IC50: Homo sapiens, read-out: IC50 HCT-116; for ratio HCT-116: IC50 HCT-116 relative to IC50 NUGC4
[3] = test system: HAOSMC (human aortic smooth muscle cell); assay: Cell proliferation inhibition test against normal cells HAOSMC; format: cell-based; conditions: for IC50: Homo sapiens, 72 h, read-out: IC50 HAOSMC; for ratio HAOSMC: IC50 HAOSMC relative to IC50 NUGC4
Procedure: [Worded in the source for another cell line; this cell line is reported under the same test.] as §1

c-Met [4] = target: T1, c-Met; assay: c-Met inhibitory assay using DeskTop Profiler (Method B); format: biochemical; design: made in house; conditions: ATP 43 μM
Procedure: Method B) c-Met Inhibitory Assay Using DeskTop Profiler
A dephosphorylation enzyme inhibitor cocktail (PhosSTOP, #4906837, product of Roche) and a protease inhibitor cocktail (Complete, Mini, EDTA-free, #1836170; product of Roche) were added to a reaction buffer (100 mM HEPES (pH: 7.5), 10 mM MgCl2, 0.003% Brij-35, 0.04% Tween, and 1 mM DTT). In the presence of the compound of the present invention, recombinant c-Met (purified product of Taiho Pharmaceutical Co., Ltd.), fluorescence-labeled c-Met substrate peptide (FL-Peptide 2, #760346, Caliper Life Sciences) (final concentration: 1.5 μM), and ATP (final concentration: 43 μM) were added thereto, and the mixture was allowed to react at 28° C. for 90 minutes. EDTA was added to the reaction mixture to a final concentration of 10 mM, to thereby terminate reaction. By use of DeskTop Profiler (#119900, Caliper Life Sciences), each fluorescence intensity of the substrate and that of the phosphorylated product was determined, whereby the amount of the formed phosphorylated product was determined. The compound concentration that realizes 50% inhibition of formation of phosphorylated product was defined as IC50 (μM), and the results are shown in the following Tables.
Target sequence in this assay (P08581 25-1390): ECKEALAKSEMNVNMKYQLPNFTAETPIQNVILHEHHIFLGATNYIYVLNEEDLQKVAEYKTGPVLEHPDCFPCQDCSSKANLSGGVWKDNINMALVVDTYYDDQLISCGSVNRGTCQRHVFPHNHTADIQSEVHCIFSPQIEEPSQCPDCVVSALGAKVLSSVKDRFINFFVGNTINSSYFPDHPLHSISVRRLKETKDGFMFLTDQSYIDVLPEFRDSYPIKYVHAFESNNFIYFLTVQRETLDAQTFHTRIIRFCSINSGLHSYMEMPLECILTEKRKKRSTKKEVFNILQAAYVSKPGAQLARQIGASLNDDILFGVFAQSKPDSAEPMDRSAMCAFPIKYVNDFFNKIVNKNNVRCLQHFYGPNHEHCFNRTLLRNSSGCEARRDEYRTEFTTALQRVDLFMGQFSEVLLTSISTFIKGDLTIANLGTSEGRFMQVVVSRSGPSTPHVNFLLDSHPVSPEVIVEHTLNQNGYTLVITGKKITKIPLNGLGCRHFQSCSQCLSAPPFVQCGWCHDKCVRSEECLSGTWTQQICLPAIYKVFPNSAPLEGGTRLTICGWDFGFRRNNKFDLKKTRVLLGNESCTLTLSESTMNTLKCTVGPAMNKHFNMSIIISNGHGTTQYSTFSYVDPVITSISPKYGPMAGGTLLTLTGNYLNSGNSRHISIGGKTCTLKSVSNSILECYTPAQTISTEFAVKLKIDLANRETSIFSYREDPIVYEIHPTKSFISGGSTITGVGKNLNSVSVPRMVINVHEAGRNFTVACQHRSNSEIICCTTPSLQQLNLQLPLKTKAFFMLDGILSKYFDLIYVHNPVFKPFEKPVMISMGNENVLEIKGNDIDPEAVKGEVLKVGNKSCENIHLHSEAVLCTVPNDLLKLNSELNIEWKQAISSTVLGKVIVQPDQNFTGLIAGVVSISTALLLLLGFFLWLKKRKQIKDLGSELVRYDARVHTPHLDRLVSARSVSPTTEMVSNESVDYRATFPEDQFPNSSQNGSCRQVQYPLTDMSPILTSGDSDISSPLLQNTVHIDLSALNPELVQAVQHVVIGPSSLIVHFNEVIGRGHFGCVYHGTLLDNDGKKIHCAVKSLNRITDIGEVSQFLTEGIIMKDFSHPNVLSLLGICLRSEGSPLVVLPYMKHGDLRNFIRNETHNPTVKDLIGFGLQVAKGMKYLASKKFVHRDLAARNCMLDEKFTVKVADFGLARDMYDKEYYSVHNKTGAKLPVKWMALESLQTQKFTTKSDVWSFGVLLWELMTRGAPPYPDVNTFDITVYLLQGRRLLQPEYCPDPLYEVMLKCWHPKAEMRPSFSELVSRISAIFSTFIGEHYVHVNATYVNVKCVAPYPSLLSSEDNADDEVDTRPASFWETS

[5] = normal, c-Met status (−), 3 days
[6] = 72 h, HCT-116, cancer, c-Met status (−), 3 days
[7] = HAOSMC, normal, c-Met status (−), 3 days

Structure (SMILES)	IC50 (NUGC4 cells) [nM]	IC50 (c-Met [1]) [nM]	IC50 [2, 5] [nM]	ratio HMEC [2]	IC50 (HCT-116; [6]) [nM]	ratio HCT-116 (HCT-116)	IC50 [3, 7] [nM]	ratio HAOSMC [3]	IC50 (c-Met [4]) [nM]	IC50 [2] [nM]	IC50 (HCT-116; HCT-116, 72 h) [nM]	IC50 [3] [nM]
COc1cc2nccc(Oc3ccc(NC(=S)NC(=O)Cc4ccccc4)cc3F)c2cc1C(=O)NCCCN1CCCC1=O [Example 5, 4-(2-Fluoro-4-(3-(2-phenylacetyl)thioureido)phenoxy)-7-methoxy-N-(3-(2-oxopyrrolidin-1-yl)propyl)quinoline-6-carboxamide]	30	116	23000	681	29000	857	> 30000	>879				
CCNC(=O)N1CCC(NC(=O)c2cc3c(Oc4ccc(NC(=S)NC(=O)Cc5ccccc5)cc4F)ccnc3cc2OC)CC1 [Example 15, N-(1-(Ethylcarbamoyl)piperidin-4-yl)-4-(2-fluoro-4-(3-(2-phenylacetyl)thioureido)phenoxy)-7-methoxyquinoline-6-carboxamide]	20	138	> 30000	>1584	> 30000	>1584	> 30000	>1584				
COc1cc2nccc(Oc3ccc(NC(=S)NC(=O)Cc4ccccc4)cc3F)c2cc1C(=O)NCC(=O)N1CCC[C@H]1CO [Example 34, (S)-4-(2-Fluoro-4-(3-(2-phenylacetyl)thioureido)phenoxy)-N-(2-(2-(hydroxymethyl)pyrrolidin-1-yl)-2-oxoethyl)-7-methoxyquinoline-6-carboxamide]	20				> 30000	>2000			22			
COc1cc2nccc(Oc3ccc(NC(=S)NC(=O)Cc4ccccc4)cc3F)c2cc1C(=O)NCC(C)(C)O [Example 24, 4-(2-Fluoro-4-(3-(2-phenylacetyl)thioureido)phenoxy)-N-(2-hydroxy-2-methylpropyl)-7-methoxyquinoline-6-carboxamide]	20	33		1552		1181		>1552		16000	23000	> 30000
COc1cc2nccc(Oc3ccc(NC(=S)NC(=O)Cc4ccc(F)cc4)cc3F)c2cc1C(=O)NC1CCCCNC1=O (centres unmarked) [Example 19, 4-(2-Fluoro-4-(3-(2-(4-fluorophenyl)acetyl)thioureido)phenoxy)-7-methoxy-N-(2-oxoazepan-3-yl)quinoline-6-carboxamide]	10	338	18000	3000	> 30000	>3000	> 30000	>3000				
COc1cc2nccc(Oc3ccc(NC(=S)NC(=O)Cc4ccccc4)cc3F)c2cc1C(=O)NCC(=O)N1CCOCC1 [Example 21, 4-(2-Fluoro-4-(3-(2-phenylacetyl)thioureido)phenoxy)-7-methoxy-N-(2-morpholino-2-oxoethyl)quinoline-6-carboxamide]	10	118	5000	3000	> 30000	>3000	> 30000	>3000				
COc1cc2nccc(Oc3ccc(NC(=S)NC(=O)Cc4ccccc4)cc3F)c2cc1C(=O)NCCS(C)(=O)=O [Example 27, 4-(2-Fluoro-4-(3-(2-phenylacetyl)thioureido)phenoxy)-7-methoxy-N-(2-(methylsulfonyl)ethyl)quinoline-6-carboxamide]	20	59	14000	1894	11000	714	> 30000	>1893				
CC[C@@H](CO)NC(=O)c1cc2c(Oc3ccc(NC(=S)NC(=O)Cc4ccc(F)cc4)cc3F)ccnc2cc1OC [Example 38, (S)-4-(2-Fluoro-4-(3-(2-(4-fluorophenyl)acetyl)thioureido)phenoxy)-N-(1-hydroxybutan-2-yl)-7-methoxyquinoline-6-carboxamide]	40					>719			32		> 30000	
COc1cc2nccc(Oc3ccc(NC(=S)NC(=O)Cc4ccc(F)cc4)cc3F)c2cc1C(=O)NCCN1CCOCC1 [Example 37, 4-(2-fluoro-4-(3-(2-(4-fluorophenyl)acetyl)thioureido)phenoxy)-7-methoxy-N-(2-morpholinoethyl)quinoline-6-carboxamide]	10				> 30000	>3000			35			
COc1cc2nccc(Oc3ccc(NC(=S)NC(=O)Cc4ccccc4)cc3F)c2cc1C(=O)NCC(=O)N(C)C [Example 22, N-(2-(Dimethylamino)-2-oxoethyl)-4-(2-fluoro-4-(3-(2-phenylacetyl)thioureido)phenoxy)-7-methoxyquinoline-6-carboxamide]	10	250	> 30000	>3000	> 30000	>3000	> 30000	>3000				
